This is an account of results in PMC9845987 (Cancer research, 2023).

One series has as its system YUHEF cells. To be noted: R406 3.16 μM, 72 h.
Series [1] relates to NF1^LoF melanoma cell lines. Kind of series: Growth rate inhibition assay. To be noted: for Normalized growth rate (DIP rate) dose response: nine NF1^LoF melanoma cell lines, 7 day-averaged, four concentrations; for Overall drug sensitivity (area over the dose-response curve): NF1^LoF cell lines. The series is classed as cell-based, human.
The next series deals with MeWo cells. To be noted: R406 3.16 μM, 72 h.
Another series relates to p-AKT^S473. Briefly: Quantitative immunofluorescence of p-AKT in MeWo cells. To be noted: 6 h, different concentrations. The series is classed as cell-based, human.
The subject of a further series is p-4EBP1^T37/46. Briefly: Quantitative immunofluorescence of p-4EBP1 in MeWo cells. The series is classed as cell-based, human. Particulars: 6 h, different concentrations.
For a further series, the system named is p-ERK^T202/Y204. Briefly: Quantitative immunofluorescence of p-ERK in MeWo cells. The series is classed as cell-based, human. Particulars: 6 h, different concentrations.
For a further series, the target named is DNA-PK (Homo sapiens, UniProt P78527). Kind of series: Biochemical kinase inhibition assay. To be noted: 10 μM.
Another series concerns the target PI4KB (Homo sapiens, UniProt Q9UBF8). Kind of series: Biochemical kinase inhibition assay. To be noted: 10 μM.
In a further series the target is SYK (Homo sapiens, UniProt P43405). Briefly: Biochemical kinase inhibition assay.
A further series has as its target mTOR (Homo sapiens, UniProt P42345). Kind of series: Biochemical kinase inhibition assay. Particulars: 10 μM.
The next series deals with p-BLNK^Y96. Briefly: Western blot of p-BLNK in IgM-stimulated Ramos cells. The series is classed as cell-based, human. To be noted: 6 h.
For the next series, the system named is COLO792 xenografts. Briefly: In vivo xenograft assay, COLO792. The arrangement: species or system mouse. To be noted: 50 mg/kg IP.
Series [2] deals with p-EGFR^Y1068 in WM3918 xenograft tumors. Briefly: Xenograft pharmacodynamic Western blot. The series is classed as in vivo, mouse. Particulars: single dose 100 mg/kg IP; 0.5 h after dosing. On the technique in general: In western blotting, separated proteins are transferred to a membrane and probed.
For series [3], the system named is human epidermal primary melanocytes (NHEM-Ad). Kind of series: Growth rate inhibition assay, primary melanocytes. Particulars: highest concentration (1 μM). The series is classed as cell-based.
A further series relates to WM3918 xenografts. Kind of series: In vivo xenograft assay, WM3918. Further details: species or system mouse. To be noted: 50 mg/kg IP.
Series [4] deals with p-AKT^S473 in WM3918 xenograft tumors. Briefly: Xenograft pharmacodynamic Western blot. To be noted: single dose 100 mg/kg IP; 0.5 h after dosing. The series is classed as in vivo, mouse.

Read-outs that look alike come from different tables or passages of the source.

For the compound `COc1cc(Nc2ncc(F)c(Nc3ccc4c(n3)NC(=O)C(C)(C)O4)n2)cc(OC)c1OC` [R406], the “p-S6 and Ki-67 levels” value with YUHEF cells is “reduced p-S6 and Ki-67”; with MeWo cells, “reduced p-S6 and Ki-67”. Further, in series [1] (MeWo, YUHEF and WM3918, R406 at 3.16 μM, 7-day), the “Reduction of growth rate” value was “approximately 2 fold”.

As for `CC(=O)Nc1cccc(-n2c(=O)n(C3CC3)c(=O)c3c(Nc4ccc(I)cc4F)n(C)c(=O)c(C)c32)c1` [trametinib], in the series with p-AKT^S473, the “Change in p-AKT^S473 levels” value was “but not trametinib, decreased p-AKT levels”. Moreover, the “Normalized growth rate (DIP rate) dose response” value in [1] is listed as “potent but less efficacious responses”. For the same compound, the “Change in p-4EBP1^T37/46 levels” value in the series with p-4EBP1^T37/46 was “no effect”. Further, the “Change in p-ERK^T202/Y204 levels” value with p-ERK^T202/Y204 is on record as “reduced ERK phosphorylation in a dose-dependent manner”.

`Cc1nc(-c2nc(-c3ccc(OC(F)(F)F)cc3)no2)nn1Cc1cccc(N2CCC(S(C)(=O)=O)CC2)c1` [IACS-010759]: the “Overall drug sensitivity (area over the dose-response curve)” value in [1] was “similarly sensitive to both IACS-010759 and MTX-216”. Besides, the “Growth inhibition (live cell count, normalized growth rate)” value in series [1] (all tested NF1^LoF cell lines, indicated doses) is given as “inhibited growth in a dose-dependent fashion”.

In general, IC50 refers to the concentration needed to halve the response being measured. A word on the inhibition: it is how much of the control response was suppressed. For `CS(=O)(=O)Nc1cc(-c2ccc3ncnc(Nc4ccc(F)c(Cl)c4)c3c2)cnc1Cl` [MTX-211, N-(2-chloro-5-(4-((3-chloro-4-fluorophenyl)amino)quinazolin-6-yl)pyridin-3-yl)methanesulfonamide], the “Change in p-AKT^S473 levels” value in the series with p-AKT^S473 was “decreased p-AKT levels in a dose-dependent manner”. For the same compound, the “Change in p-4EBP1^T37/46 levels” value in the series on p-4EBP1^T37/46 is recorded as “did not decrease p-4EBP1 levels at concentrations below 1 μM”. Moreover, the “Inhibition of DNA-PK” value on DNA-PK is reported as “inhibited”. Moreover, the “Inhibition of PI4KB” value at PI4KB is given as “inhibited”. In addition, in the series with p-ERK^T202/Y204, the “Change in p-ERK^T202/Y204 levels” value was “no significant effect”. In addition, the IC50 against SYK (SYK IC50, 0.5 nM to 10 μM, ATP at Km,app) is around 6 µM. Further, the inhibition at 10 µM at SYK (read-out: % inhibition of SYK) is 52%. Moreover, the “Inhibition of mTOR” value at mTOR is recorded as “inhibited”.

As for `CS(=O)(=O)N1CCN(Cc2cc3nc(-c4cccc5[nH]ncc45)nc(N4CCOCC4)c3s2)CC1` [pictilisib], the “Change in p-AKT^S473 levels” value with p-AKT^S473 is on record as “decreased p-AKT levels in a dose-dependent manner”. The “Change in p-4EBP1^T37/46 levels” value in the series on p-4EBP1^T37/46 is listed as “did not decrease p-4EBP1 levels at concentrations below 1 μM”. In addition, the “Change in p-ERK^T202/Y204 levels” value in the series on p-ERK^T202/Y204 is given as “no significant effect”.

Take `CC(C)Nc1cc(-c2c[nH]c(C(=O)N[C@H](CO)c3cccc(Cl)c3)c2)c(Cl)cn1` [ulixertinib]: in series [1], the “Normalized growth rate (DIP rate) dose response” value was “potent but less efficacious responses”.

`COc1ccc(-c2ccc3c(N4CCOC[C@@H]4C)nc(N4CCOC[C@@H]4C)nc3n2)cc1CO` [AZD8055]: the “Change in p-AKT^S473 levels” value in the series on p-AKT^S473 is “decreased p-AKT levels in a dose-dependent manner”. Besides, the “Change in p-4EBP1^T37/46 levels” value in the series on p-4EBP1^T37/46 is recorded as “potently reduced”. In addition, the “Change in p-ERK^T202/Y204 levels” value with p-ERK^T202/Y204 is on record as “no significant effect”.

Take “N-(2-chloro-5-(4-((3-chloro-4-fluorophenyl)amino)-3-cyanoquinolin-6-yl)pyridin-3-yl)methanesulfonamide [MTX-216]”: the “Change in p-AKT^S473 levels” value in the series with p-AKT^S473 was “decreased p-AKT levels in a dose-dependent manner”. The “Inhibition of p-BLNK^Y96 levels” value with p-BLNK^Y96 is “more efficient in inhibition of p-BLNK in comparison with MTX-211”. Besides, the “Overall drug sensitivity (area over the dose-response curve)” value in series [1] is “similarly sensitive to both IACS-010759 and MTX-216”. The “Normalized growth rate (DIP rate) dose response” value in [1] was “consistently cytotoxic”. Besides, the Body weight entry in the series on COLO792 xenografts and in the series on WM3918 xenografts was “no major loss in body weight” each time. Also, the Tumor growth entry with COLO792 xenografts (20 days) and with WM3918 xenografts (11 days) was “suppressed tumor growth” in each case. Besides, the “Change in p-4EBP1^T37/46 levels” value in the series with p-4EBP1^T37/46 is “did not decrease p-4EBP1 levels at concentrations below 1 μM”. Further, the “p-EGFR levels in excised tumors” value in [2] is on record as “significant reduction”. On DNA-PK, the “Inhibition of DNA-PK” value was “inhibited”. In addition, the “Inhibition of PI4KB” value on PI4KB is “inhibited”. The “Cytotoxicity (normalized growth rate)” value in series [3] is listed as “no cytotoxicity”. In addition, the “Change in p-ERK^T202/Y204 levels” value in the series with p-ERK^T202/Y204 is given as “no significant effect”. In addition, the “p-AKT levels in excised tumors” value in series [4] is on record as “significant reduction”. Further, the “% inhibition of SYK” value on SYK (10 μM, ATP at Km,app) worked out at 94%. For the same compound, the “Potency on SYK relative to MTX-211” value on SYK (ratio of IC50) is ~ 21 fold. For the same compound, the IC50 on SYK (read-out: SYK IC50, 0.5 nM to 10 μM, ATP at Km,app) was 0.281 µM. At mTOR, the “Inhibition of mTOR” value was “inhibited”.
